Source: PubChem BioAssay AID1918995 (Molecular Pharmacology Branch, DTP, NCI, 2023)

Tested on: 324938-238-R-J1-PDC complex spheroid growth, % test/control
Experiment: Anticancer human tumor 324938-238-R-J1-PDC patient-derived bladder carcinoma cell line growth inhibition [AhR]
Details: for IC50: curve of first compound; for viability, T/C: stronger effect = lower value
Outline: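 Agents were dosed in half-log steps down from roughly clinical Cmax, or from 10 microM where Cmax was unknown, alone and with AhR antagonists. Read-out: percent test/control growth of tumor spheroids containing HUVEC and MSC stromal cells.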

[1] = second compound 0.1 µM, first compound 0.000949 µM
[2] = second compound 0.1 µM, first compound 0.003 µM
[3] = second compound 0.1 µM, first compound 0.00949 µM
[4] = second compound 0.1 µM, first compound 0.03 µM
[5] = second compound 0.1 µM, first compound 0.0949 µM
[6] = second compound 0.1 µM, first compound 0.3 µM
[7] = second compound 0.316 µM, first compound 0.000949 µM
[8] = second compound 0.316 µM, first compound 0.003 µM
[9] = second compound 0.316 µM, first compound 0.00949 µM
[10] = second compound 0.316 µM, first compound 0.03 µM
[11] = second compound 0.316 µM, first compound 0.0949 µM
[12] = second compound 0.316 µM, first compound 0.3 µM
[13] = second compound 1 µM, first compound 0.000949 µM
[14] = second compound 1 µM, first compound 0.003 µM
[15] = second compound 1 µM, first compound 0.00949 µM
[16] = second compound 1 µM, first compound 0.03 µM
[17] = second compound 1 µM, first compound 0.0949 µM
[18] = second compound 1 µM, first compound 0.3 µM
[19] = second compound 3.16 µM, first compound 0.000949 µM
[20] = second compound 3.16 µM, first compound 0.003 µM
[21] = second compound 3.16 µM, first compound 0.00949 µM
[22] = second compound 3.16 µM, first compound 0.03 µM
[23] = second compound 3.16 µM, first compound 0.0949 µM
[24] = second compound 3.16 µM, first compound 0.3 µM
[25] = second compound 10 µM, first compound 0.000949 µM
[26] = second compound 10 µM, first compound 0.003 µM
[27] = second compound 10 µM, first compound 0.00949 µM
[28] = second compound 10 µM, first compound 0.03 µM
[29] = second compound 10 µM, first compound 0.0949 µM
[30] = second compound 10 µM, first compound 0.3 µM
[31] = second compound 0.1 µM, first compound 0.0316 µM
[32] = second compound 0.1 µM, first compound 0.1 µM
[33] = second compound 0.1 µM, first compound 0.316 µM
[34] = second compound 0.1 µM, first compound 1 µM
[35] = second compound 0.1 µM, first compound 3.16 µM
[36] = second compound 0.1 µM, first compound 10 µM
[37] = second compound 0.316 µM, first compound 0.0316 µM
[38] = second compound 0.316 µM, first compound 0.1 µM
[39] = second compound 0.316 µM, first compound 0.316 µM
[40] = second compound 0.316 µM, first compound 1 µM
[41] = second compound 0.316 µM, first compound 3.16 µM
[42] = second compound 0.316 µM, first compound 10 µM
[43] = second compound 1 µM, first compound 0.0316 µM
[44] = second compound 1 µM, first compound 0.1 µM
[45] = second compound 1 µM, first compound 0.316 µM
[46] = second compound 1 µM, first compound 1 µM
[47] = second compound 1 µM, first compound 3.16 µM
[48] = second compound 1 µM, first compound 10 µM
[49] = second compound 3.16 µM, first compound 0.0316 µM
[50] = second compound 3.16 µM, first compound 0.1 µM
[51] = second compound 3.16 µM, first compound 0.316 µM
[52] = second compound 3.16 µM, first compound 1 µM
[53] = second compound 3.16 µM, first compound 3.16 µM
[54] = second compound 3.16 µM, first compound 10 µM
[55] = second compound 10 µM, first compound 0.0316 µM
[56] = second compound 10 µM, first compound 0.1 µM
[57] = second compound 10 µM, first compound 0.316 µM
[58] = second compound 10 µM, first compound 1 µM
[59] = second compound 10 µM, first compound 3.16 µM
[60] = second compound 10 µM, first compound 10 µM
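Also: spheroids exposed to agents for seven days before viability read.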

CC(C)CC(NC(=O)C(Cc1ccccc1)NC(=O)c1cnccn1)B(O)O (stereo not given) + Cc1cncc(-c2nc(NCCc3c[nH]c4ccccc34)c3ncn(C(C)C)c3n2)c1
IC50 (second compound 0.1 µM): 4.75 nM
IC50 (second compound 0.316 µM): 4.16 nM
IC50 (second compound 1 µM): 4.21 nM
IC50 (second compound 3.16 µM): 4.41 nM
IC50 (second compound 10 µM): < 0.949 nM
viability, T/C [1]: 140%
viability, T/C [2]: 82.9%
viability, T/C [3]: 0.38%
viability, T/C [4]: 0.6%
viability, T/C [5]: 0.37%
viability, T/C [6]: 0.39%
viability, T/C [7]: 123%
viability, T/C [8]: 69.4%
viability, T/C [9]: 0.83%
viability, T/C [10]: 2.26%
viability, T/C [11]: 1.05%
viability, T/C [12]: 0.73%
viability, T/C [13]: 107%
viability, T/C [14]: 70.6%
viability, T/C [15]: 0.67%
viability, T/C [16]: 0.27%
viability, T/C [17]: 0.57%
viability, T/C [18]: 0.35%
viability, T/C [19]: 109%
viability, T/C [20]: 74.3%
viability, T/C [21]: 1.45%
viability, T/C [22]: 0.48%
viability, T/C [23]: 0.28%
viability, T/C [24]: 0.4%
viability, T/C [25]: 5.75%
viability, T/C [26]: 2.91%
viability, T/C [27]: 1.36%
viability, T/C [28]: 0.48%
viability, T/C [29]: 0.49%
viability, T/C [30]: 0.42%

CCc1c2c(nc3ccc(O)cc13)-c1cc3c(c(=O)n1C2)COC(=O)[C@]3(O)CC + Cc1cncc(-c2nc(NCCc3c[nH]c4ccccc34)c3ncn(C(C)C)c3n2)c1
IC50 (second compound 0.1 µM): > 300 nM
IC50 (second compound 0.316 µM): > 300 nM
IC50 (second compound 1 µM): > 300 nM
IC50 (second compound 3.16 µM): 204 nM
IC50 (second compound 10 µM): < 0.949 nM
viability, T/C [1]: 89.1%
viability, T/C [2]: 71.7%
viability, T/C [3]: 91.8%
viability, T/C [4]: 65.7%
viability, T/C [5]: 83.1%
viability, T/C [6]: 80.9%
viability, T/C [7]: 82.3%
viability, T/C [8]: 81.9%
viability, T/C [9]: 102%
viability, T/C [10]: 97.3%
viability, T/C [11]: 63.5%
viability, T/C [12]: 61.4%
viability, T/C [13]: 88.5%
viability, T/C [14]: 71.3%
viability, T/C [15]: 93.6%
viability, T/C [16]: 76%
viability, T/C [17]: 73.9%
viability, T/C [18]: 70.3%
viability, T/C [19]: 71.7%
viability, T/C [20]: 95.7%
viability, T/C [21]: 91.7%
viability, T/C [22]: 79.3%
viability, T/C [23]: 55.4%
viability, T/C [24]: 47.2%
viability, T/C [25]: 2.77%
viability, T/C [26]: 3.5%
viability, T/C [27]: 8.95%
viability, T/C [28]: 6.69%
viability, T/C [29]: 10.2%
viability, T/C [30]: 10.6%

Nc1ccccc1NC(=O)c1ccc(CNC(=O)OCc2cccnc2)cc1 + Cc1cncc(-c2nc(NCCc3c[nH]c4ccccc34)c3ncn(C(C)C)c3n2)c1
IC50 (second compound 0.1 µM): 1740 nM
IC50 (second compound 0.316 µM): 4610 nM
IC50 (second compound 1 µM): 3440 nM
IC50 (second compound 3.16 µM): 4100 nM
IC50 (second compound 10 µM): < 31.6 nM
viability, T/C [31]: 87.7%
viability, T/C [32]: 91%
viability, T/C [33]: 97.5%
viability, T/C [34]: 48.9%
viability, T/C [35]: 43.2%
viability, T/C [36]: 6.54%
viability, T/C [37]: 67.6%
viability, T/C [38]: 104%
viability, T/C [39]: 79.5%
viability, T/C [40]: 83.4%
viability, T/C [41]: 72.2%
viability, T/C [42]: 4.51%
viability, T/C [43]: 105%
viability, T/C [44]: 89.6%
viability, T/C [45]: 79.8%
viability, T/C [46]: 78.5%
viability, T/C [47]: 57.8%
viability, T/C [48]: 3.52%
viability, T/C [49]: 64.2%
viability, T/C [50]: 61%
viability, T/C [51]: 62.3%
viability, T/C [52]: 65.3%
viability, T/C [53]: 68.1%
viability, T/C [54]: 1.13%
viability, T/C [55]: 2.83%
viability, T/C [56]: 3.36%
viability, T/C [57]: 4.55%
viability, T/C [58]: 1.45%
viability, T/C [59]: 6%
viability, T/C [60]: 0.4%

O=C(c1cc(Cc2n[nH]c(=O)c3ccccc23)ccc1F)N1CCN(C(=O)C2CC2)CC1 + Cc1cncc(-c2nc(NCCc3c[nH]c4ccccc34)c3ncn(C(C)C)c3n2)c1
IC50 (second compound 0.1 µM): > 10000 nM
IC50 (second compound 0.316 µM): > 10000 nM
IC50 (second compound 1 µM): > 10000 nM
IC50 (second compound 3.16 µM): > 10000 nM
IC50 (second compound 10 µM): < 31.6 nM
viability, T/C [31]: 106%
viability, T/C [32]: 96.6%
viability, T/C [33]: 78.3%
viability, T/C [34]: 71.6%
viability, T/C [35]: 72.5%
viability, T/C [36]: 79.5%
viability, T/C [37]: 97.2%
viability, T/C [38]: 115%
viability, T/C [39]: 105%
viability, T/C [40]: 97.2%
viability, T/C [41]: 92.3%
viability, T/C [42]: 74.4%
viability, T/C [43]: 78.4%
viability, T/C [44]: 106%
viability, T/C [45]: 91%
viability, T/C [46]: 61.5%
viability, T/C [47]: 72%
viability, T/C [48]: 59.6%
viability, T/C [49]: 78.4%
viability, T/C [50]: 66.2%
viability, T/C [51]: 84.3%
viability, T/C [52]: 68.2%
viability, T/C [53]: 77.7%
viability, T/C [54]: 67.6%
viability, T/C [55]: 5.77%
viability, T/C [56]: 4.45%
viability, T/C [57]: 2.26%
viability, T/C [58]: 4.78%
viability, T/C [59]: 4.97%
viability, T/C [60]: 8.77%
